Results taken from patent US10927105B1 (Lundbeck La Jolla Research Center, Inc., priority 2017, dated 2021).

The molecules below were run against MAGL (Homo sapiens (Human), UniProt Q99685) (assay: In vitro competitive activity-based protein profiling (human prefrontal cortex membrane fractions, FP-Rh probe), MAGL band). Settings: read-out: MAGL IC50 (μM) (human); human prefrontal cortex membrane fractions.
Chain of MAGL (Q99685 whole entry): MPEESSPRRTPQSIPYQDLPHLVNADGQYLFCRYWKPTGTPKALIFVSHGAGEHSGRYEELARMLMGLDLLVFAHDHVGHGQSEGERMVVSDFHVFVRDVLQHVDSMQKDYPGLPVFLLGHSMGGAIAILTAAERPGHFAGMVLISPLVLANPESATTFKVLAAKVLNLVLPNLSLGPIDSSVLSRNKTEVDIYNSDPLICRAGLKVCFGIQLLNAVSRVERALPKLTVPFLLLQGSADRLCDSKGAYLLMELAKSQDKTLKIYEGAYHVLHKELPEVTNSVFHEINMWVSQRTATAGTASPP

Compound | IC50
O=C(O)c1nn(C(=O)N2CC3CN(Cc4cc(Cl)ccc4Cl)CC3C2)cc1Cl (centres unmarked) [Example 136, 4-chloro-1-(5-(2,5-dichlorobenzyl)-octahydropyrrolo-[3,4-c]pyrrole-2-carbonyl)-1H-pyrazole-3-carboxylic acid] | < 0.1 µM
Cc1cc(CN2CCCC23CCN(C(=O)n2ccc(C(=O)O)n2)CC3)cc(C(F)(F)F)c1 [Example 303, 1-(1-(3-methyl-5-(trifluoromethyl)-benzyl)-1,8-diazaspiro[4.5]-decane-8-carbonyl)-1H-pyrazole-3-carboxylic acid] | < 0.1 µM
O=C(O)c1ccn(C(=O)N2CCC3(CCCN3Cc3cc(-n4cccn4)cc(C(F)(F)F)c3)CC2)n1 [Example 32, 1-(1-(3-(1H-pyrazol-1-yl)-5-(Trifluoromethyl)benzyl)-1,8-diazaspiro[4.5]decane-8-carbonyl)-1H-pyrazole-3-carboxylic Acid] | < 0.1 µM
C[C@H]1C[C@H](N(C)Cc2cccc(C(F)(F)F)c2)CCN1C(=O)n1ccc(C(N)=O)n1 [Example 259, 1-((2S,4R)-2-methyl-4-(methyl(3-(trifluoromethyl)-benzyl)amino)-piperidine-1-carbonyl)-1H-pyrazole-3-carboxamide] | < 0.1 µM
C[C@@H]1CN(Cc2cc(Cl)cc(C(F)(F)F)c2)CCN1C(=O)n1ccc(C(N)=O)n1 [Example 272, (R)-1-(4-(3-chloro-5-(trifluoromethyl)-benzyl)-2-methylpiperazine-1-carbonyl)-1H-pyrazole-3-carboxamide] | < 0.1 µM
Cc1cn(C(=O)N2CCN(Cc3cccc(Oc4ccc(Cl)cc4)c3)CC2)nc1C(=O)O [Example 129, 1-(4-(3-(4-chlorophenoxy)-benzyl)-piperazine-1-carbonyl)-4-methyl-1H-pyrazole-3-carboxylic acid] | < 0.1 µM
O=C(O)c1ccn(C(=O)N2CCC3(CCN(Cc4cc(Cl)ccc4C(F)(F)F)CC3)CC2)n1 [Example 217, 1-(9-(5-chloro-2-(trifluoromethyl)-benzyl)-3,9-diazaspiro[5.5]-undecane-3-carbonyl)-1H-pyrazole-3-carboxylic acid] | < 0.1 µM
C[C@@H]1CN(Cc2cccc(OCC(C)(C)O)c2Cl)CCN1C(=O)n1ccc(C(N)=O)n1 [Example 216, (R)-1-(4-(2-chloro-3-(2-hydroxy-2-methylpropoxy)-benzyl)-2-methylpiperazine-1-carbonyl)-1H-pyrazole-3-carboxamide] | < 0.1 µM
CN(Cc1cc(C(F)(F)F)ccc1N1CCCC1)C1(C)CCN(C(=O)n2ccc(C(=O)O)n2)CC1 [Example 384, 1-(4-methyl-4-(methyl(2-(pyrrolidin-1-yl)-5-(trifluoromethyl)-benzyl)amino)-piperidine-1-carbonyl)-1H-pyrazole-3-carboxylic acid] | < 0.1 µM
C[C@H]1CN(Cc2cccc(Oc3ccc(Cl)cc3)c2)CCN1C(=O)n1ccc(C(=O)O)n1 [Example 311, (S)-1-(4-(3-(4-chlorophenoxy)-benzyl)-2-methylpiperazine-1-carbonyl)-1H-pyrazole-3-carboxylic acid] | < 0.1 µM
CNC(=O)c1ccn(C(=O)N2CC3CN(Cc4ccc(Cl)cc4)CC3C2)n1 (centres unmarked) [Example 424, 1-(5-(4-chlorobenzyl)-octahydropyrrolo-[3,4-c]pyrrole-2-carbonyl)-N-methyl-1H-pyrazole-3-carboxamide] | < 0.1 µM
C[C@@H]1CN(Cc2ccc(-c3ccccc3)cc2Cl)CCN1C(=O)n1ccc(C(=O)O)n1 [Example 291, (R)-1-(4-((3-chloro-[1,1′-biphenyl]-4-yl)methyl)-2-methylpiperazine-1-carbonyl)-1H-pyrazole-3-carboxylic acid] | < 0.1 µM
C[C@H]1CN(Cc2cc(F)cc(Oc3ccccc3Cl)c2)CCN1C(=O)n1ccc(C(=O)O)n1 [Example 349, (S)-1-(4-(3-(2-chlorophenoxy)-5-fluorobenzyl)-2-methylpiperazine-1-carbonyl)-1H-pyrazole-3-carboxylic acid] | < 0.1 µM
Cc1cc(-c2ccccc2)ccc1CN1CCN(C(=O)n2ccc(C(=O)O)n2)CC1 [Example 16, 1-(4-((3-Methyl-[1,1′-biphenyl]-4-yl)methyl)piperazine-1-carbonyl)-1H-pyrazole-3-carboxylic acid] | < 0.1 µM
CC(C)(O)COc1cccc(O[C@H]2C[C@@H]3CN(C(=O)n4ccc(C(=O)O)n4)C[C@@H]3C2)c1Cl [Example 451, 1-(trans-5-(2-chloro-3-(2-hydroxy-2-methylpropoxy)-phenoxy)-octahydrocyclopenta-[c]pyrrole-2-carbonyl)-1H-pyrazole-3-carboxylic acid] | < 0.1 µM
O=C(O)c1nn(C(=O)N2CCC3(CCN(Cc4cc(Cl)cc(C(F)(F)F)c4)C3)CC2)cc1Cl [Example 388, 4-chloro-1-(2-(3-chloro-5-(trifluoromethyl)-benzyl)-2,8-diazaspiro-[4.5]decane-8-carbonyl)-1H-pyrazole-3-carboxylic acid] | < 0.1 µM
C[C@@H]1CN(Cc2ccc(C(F)(F)F)cc2N2CCCC2)CCN1C(=O)n1ccc(C(=O)O)n1 [Example 327, (R)-1-(2-methyl-4-(2-(pyrrolidin-1-yl)-4-(trifluoromethyl)-benzyl)-piperazine-1-carbonyl)-1H-pyrazole-3-carboxylic acid] | < 0.1 µM
CN(Cc1cc(Cl)ccc1C(F)(F)F)CC1CCN(C(=O)n2cc(Cl)c(C(=O)O)n2)CC1 [Example 54, 4-chloro-1-(4-(((5-chloro-2-(trifluoromethyl)-benzyl)(methyl)-amino)-methyl)piperidine-1-carbonyl)-1H-pyrazole-3-carboxylic acid] | < 0.1 µM
O=C(O)c1ccn(C(=O)N2CCN(Cc3ccc(C(F)(F)F)cc3N3CCOCC3)CC2)n1 [Example 3, 1-(4-(2-Morpholino-4-(trifluoromethyl)benzyl)piperazine-1-carbonyl)-1H-pyrazole-3-carboxylic Acid] | < 0.1 µM
CN(Cc1cc(N2CCCC2)cc(C(F)(F)F)c1)C1(C)CCN(C(=O)n2ccc(C(=O)O)n2)CC1 [Example 381, 1-(4-methyl-4-(methyl(3-(pyrrolidin-1-yl)-5-(trifluoromethyl)-benzyl)amino)-piperidine-1-carbonyl)-1H-pyrazole-3-carboxylic acid] | < 0.1 µM
O=C(O)c1ccn(C(=O)N2CCC3(CCN(Cc4cc(N5CCCC5)ccc4C(F)(F)F)C3)CC2)n1 [Example 391, 1-(2-(5-(pyrrolidin-1-yl)-2-(trifluoromethyl)-benzyl)-2,8-diazaspiro[4.5]-decane-8-carbonyl)-1H-pyrazole-3-carboxylic acid] | < 0.1 µM
O=C(O)c1ccn(C(=O)N2CCC3(CCCN3Cc3ccc(C(F)(F)F)cc3N3CC4CCC(C3)O4)CC2)n1 [Example 416, 1-(1-(2-(8-oxa-3-azabicyclo[3.2.1]-octan-3-yl)-4-(trifluoromethyl)-benzyl)-1,8-diazaspiro[4.5]-decane-8-carbonyl)-1H-pyrazole-3-carboxylic acid] | < 0.1 µM
O=C(O)c1ccn(C(=O)N2CCN(Cc3cccc(Oc4ccnc(C(F)(F)F)c4)c3)CC2)n1 [Example 355, 1-(4-(3-((2-(trifluoromethyl)-pyridin-4-yl)oxy)benzyl)-piperazine-1-carbonyl)-1H-pyrazole-3-carboxylic acid] | < 0.1 µM
